Measurements taken from ChEMBL document CHEMBL1123097, “Structure-activity relationship in PAF-acether. 2. rac-1-O-Octadecyl-2-O-acetyl-3-O-[gamma-(dimethylamino)propyl]glycerol ” (J Med Chem, 1985).

Experiments:
[1] = tested on: Cavia porcellus; assay: Compound was evaluated in anesthetized guinea pigs, for the percentage drop in platelet counts between 2 min before and 1 min after injection at 33 ng/kg; assay type: functional
[2] = species: Oryctolagus cuniculus; assay: In vitro platelet aggregating activity in washed rabbit platelets; assay type: functional
[3] = tested on: Cavia porcellus; assay: Compound was evaluated in anesthetized guinea pigs, for the percentage decrease of bronchoconstrictive activity; assay type: functional, Lung; design: scale not given: the % may be the effect or the level left
[4] = tested on: Cavia porcellus; assay: Compound was evaluated in anesthetized guinea pigs, for the percentage drop in platelet counts between 2 min before and 1 min after injection; assay type: functional
[5] = tested on: Cavia porcellus; assay: Compound was evaluated in anesthetized guinea pigs, for the percentage drop in platelet counts between 2 min before and 1 min after injection at 66 ng/kg; assay type: functional
[6] = species: Oryctolagus cuniculus; assay: In vitro platelet aggregating activity in washed rabbit platelets; No lysis observed; assay type: functional
[7] = tested on: Cavia porcellus; assay: Compound was evaluated in anesthetized guinea pigs, for the percentage drop in platelet counts between 2 min before and 1 min after injection at 520ng/kg; assay type: functional

CCCCCCCCCCCCCCCCCCOC[C@H](COP(=O)([O-])OCC[N+](C)(C)C)OC(C)=O
Aggregation [1]: 48%
EC50 [2]: 0.057 nM

CCCCCCCCCCCCCCCCCCOCC(COP(=O)([O-])OCC[N+](C)(C)C)OC(C)=O (racemic)
Activity [3]: 100%
Aggregation [4]: 0%
EC50 [2]: 0.22 nM

CCCCCCCCCCCCCCCCCCOCC(COCCCN(C)C)OC(C)=O.Cl (stereo not given)
Aggregation [1]: 0%
Aggregation [5]: 0%
EC50 [6]: 170 nM

CCCCCCCCCCCCCCCCCCOCC(O)COCCC[N+](C)(C)C.[OH-] (stereo not given)
Aggregation [7]: 100%
EC50 [2]: > 4000 nM
